In publication PMC8617691, “Distigmasterol-Modified Acylglycerols as New Structured Lipids—Synthesis, Identification and Cytotoxicity” (Molecules, 2021):
Where two headings read alike, the source gives them in different places.

Tests used:
[1] = test system: CCD 841CoN colon mucosa cells; experiment: MTT cytotoxicity test, colon mucosa cells; assay type: cell-based, human; details: CCD 841CoN cells, 100 µg/mL and lower concentrations, 48 h
Experimental: (§1) Distigmasterol-modified acylglycerols were examined for their cytotoxicity in normal human cells originating from the digestive system. The cells were treated for 48 h with increasing concentrations of dStigMAs, and cell proliferation, metabolic activity, and viability were assayed using the MTT test. The cytotoxic effects of the analyzed dStigMAs on CCD 841CoN colon mucosa cells, FHs 74 Int small intestine epithelial cells, and THLE-2 hepatocytes are presented in Figure 6.
(§2) The cytotoxicity of dStigMAs was analyzed at the maximum concentration of 100 µg/mL, which corresponded to doses of 83 µM of dStigC-PA, 81 µM of dStigC-OA, 76 µM of dStigS-PA, and 75 µM of dStigS-OA. The minimum doses tested were 10,000-fold lower. Cell viability and metabolic activity were assessed using the MTT test following the procedure described by Olejnik et al..
(§3) Figure 6 Effect of dStigMAs on (A) normal small intestinal epithelial cells (FHs 74 Int, ATCC® CCL241™), (B) normal colonic epithelial cells (CCD 841CoN, ATCC® CRL-179™), and (C) normal liver cells (THLE-2, ATCC® CRL-2706™).

[2] = test system: FHs 74 Int small intestine epithelial cells; experiment: MTT cytotoxicity test, small intestinal epithelial cells; assay type: cell-based, human; details: FHs 74 Int cells; for cytotoxicity (in words): 100 µg/mL and lower concentrations; for cytotoxicity (in words) / EC50: 48 h; for dose at which first cytotoxic symptoms were noted: 48 h treatment; for EC50: Homo sapiens, FHs74Int, read-out: median effective concentration (EC50)
Experimental: as §1, §2, §3

[3] = test system: THLE-2 hepatocytes; experiment: MTT cytotoxicity test, hepatocytes; assay type: cell-based, human; details: THLE-2 cells, 100 µg/mL and lower concentrations, 48 h
Experimental: as §1, §2, §3

[4] = MTT cytotoxicity test, colon mucosa cells; assay type: cell-based, human; details: human, CCD 841CoN normal colonic epithelial cells, colon cells (CCD 841CoN), 100 µg/mL, read-out: cell proliferation and viability at the maximum dose
Experimental: as §1, §2, §3

[5] = MTT cytotoxicity test, small intestinal epithelial cells; assay type: cell-based, human; details: human, FHs 74 Int normal small intestinal epithelial cells, FHs 74 Int cells, 100 µg/mL, 48 h, read-out: cell viability at the maximum concentration tested
Experimental: as §1, §2, §3

[6] = MTT cytotoxicity test, hepatocytes; assay type: cell-based, human; details: human, THLE-2 normal liver cells (hepatocytes), liver cells (THLE-2), 100 µg/mL, read-out: cell proliferation and viability at the maximum dose
Experimental: as §1, §2, §3

CCCCCCCCCCCCCCCC(=O)OCC(COC(=O)CCC(=O)O[C@H]1CC[C@@]2(C)C(=CC[C@H]3[C@@H]4CC[C@H]([C@H](C)/C=C/[C@@H](CC)C(C)C)[C@@]4(C)CC[C@@H]32)C1)OC(=O)CCC(=O)O[C@H]1CC[C@@]2(C)C(=CC[C@H]3[C@@H]4CC[C@H]([C@H](C)/C=C/[C@@H](CC)C(C)C)[C@@]4(C)CC[C@@H]32)C1 (stereo partly shown) [dStigS-PA, 1,2-Distigmasterylsuccinoyl-3-Palmitoyl-sn-Glycerol]
cytotoxicity (in words) [1]: no cytotoxic activity
melting point: 91 to 93 °C
cytotoxicity (in words) [2]: no cytotoxic activity
cytotoxicity (in words) [3]: no cytotoxic activity

CCCCCCCCC=CCCCCCCCC(=O)OCC(COC(=O)OC1CCC2(C)C(=CCC3C2CCC2(C)C(C(C)C=CC(CC)C(C)C)CCC32)C1)OC(=O)OC1CCC2(C)C(=CCC3C2CCC2(C)C(C(C)C=CC(CC)C(C)C)CCC32)C1 (stereo not shown) [dStigC-OA, 2,3-Distigmasterylcarbonoyl-1-Oleoyl-sn-Glycerol]
viability at 48 h, 100 µg/mL [4]: 59.4%
dose at which first cytotoxic symptoms were noted [2]: 0.1 µg/mL
EC50 [2]: 0.47 µg/mL
EC50 ([2]; value in brackets): 381 nM
viability at 48 h, 100 µg/mL [5]: 20.2%
viability at 48 h, 100 µg/mL [6]: 48.9%

CCCCCCCCC=CCCCCCCCC(=O)OCC(COC(=O)CCC(=O)OC1CCC2(C)C(=CCC3C2CCC2(C)C(C(C)C=CC(CC)C(C)C)CCC32)C1)OC(=O)CCC(=O)OC1CCC2(C)C(=CCC3C2CCC2(C)C(C(C)C=CC(CC)C(C)C)CCC32)C1 (stereo not shown) [dStigS-OA, 2,3-Distigmasterylsuccinoyl-1-Oleoyl-sn-Glycerol]
cytotoxicity (in words) [1]: no cytotoxic activity
cytotoxicity (in words) [2]: no cytotoxic activity
cytotoxicity (in words) [3]: no cytotoxic activity

CCCCCCCCCCCCCCCC(=O)OCC(COC(=O)O[C@H]1CC[C@@]2(C)C(=CC[C@H]3[C@@H]4CC[C@H]([C@H](C)/C=C/[C@@H](CC)C(C)C)[C@@]4(C)CC[C@@H]32)C1)OC(=O)O[C@H]1CC[C@@]2(C)C(=CC[C@H]3[C@@H]4CC[C@H]([C@H](C)/C=C/[C@@H](CC)C(C)C)[C@@]4(C)CC[C@@H]32)C1 (stereo partly shown) [dStigC-PA, 1,2-Distigmasterylcarbonoyl-3-Palmitoyl-sn-Glycerol]
viability at 48 h, 100 µg/mL [4]: 53.8%
dose at which first cytotoxic symptoms were noted [2]: 0.1 µg/mL
EC50 [2]: 0.32 µg/mL
EC50 ([2]; value in brackets): 266 nM
viability at 48 h, 100 µg/mL [5]: 17.5%
viability at 48 h, 100 µg/mL [6]: 56.3%
